We go through 2 molecules from patent US11000516B2 (priority 2015, dated 2021).

The structures appear in SMILES notation. pEC50: −log10 of the molar value.

In data set [1] the test system is EDEN2 (clinical DENV2 isolate). Kind of data set: Antiviral effect in Vero cells, plaque assay of supernatant 48 h pi. The format is cell-based. The settings on record: EDEN2, MOI 0.3, read-out: EC50. As to the method: (§1) Cells were infected with DENV strains for 1 hour at 37° C. and washed once with culture media. […] The supernatants were subjected to standard plaque assay and the EC50 values were determined using the GraphPad Prism software.
(§2) NITD008, an adenosine analog inhibitor of DENV polymerase (Yin et al., 2009) was used as a positive control.

Data set [2] deals with EDEN1 (clinical DENV1 isolate). The description is as above. The data set is classed as cell-based. As to the method:
as §1, §2

For data set [3], the system named is S221 (mouse-adapted DENV2 strain). The description is as above. The format is cell-based. The settings on record: S221, MOI 0.3, read-out: EC50. As to the method: as §1, §2
In data set [4] the test system is EDEN2 (clinical DENV2 isolate). As to the kind of experiment: Ab-mediated infection of THP-1 cells with enhancing concentration of 4G2 Ab. Conditions: THP-1 with 4G2 Ab, EDEN2, MOI 50, single experiment; read-out: EC50. The format is cell-based. As to the method:
as §1, §2

The test system of data set [5] is EDEN1 (clinical DENV1 isolate). Described as above. The data set is classed as cell-based. The settings on record: THP-1 with 4G2 Ab, EDEN1, MOI 2, single experiment; read-out: EC50. On the procedure: as §1, §2
In data set [6] the test system is S221 (mouse-adapted DENV2 strain). The description is as above. The format is cell-based. The settings on record: THP-1 with 4G2 Ab, S221, MOI 2, single experiment; read-out: EC50. As to the method: as §1, §2
Data set [7] concerns EDEN2 (clinical DENV2 isolate). Kind of data set: Antiviral effect in BHK-21 cells, plaque assay of supernatant 48 h pi. The data set is classed as cell-based. The settings on record: BHK-21, EDEN2, MOI 0.3; read-out: EC50. On the procedure: as §1, §2
Data set [8] relates to EDEN1 (clinical DENV1 isolate). The data set is described as above. The data set is classed as cell-based. The settings on record: read-out: EC50. On the procedure:
as §1, §2

For data set [9], the system named is S221 (mouse-adapted DENV2 strain). The data set is described as above. Conditions: BHK-21, S221, MOI 0.3; read-out: EC50. The data set is classed as cell-based. As to the method:
as §1, §2

Data set [10] relates to EDEN2 (clinical DENV2 isolate). Kind of data set: Antiviral effect in HuH-7 cells, plaque assay of supernatant 48 h pi. The data set is classed as cell-based. Conditions: HuH-7, EDEN2, MOI 0.3; read-out: EC50. On the procedure:
as §1, §2

Data set [11] has as its system EDEN1 (clinical DENV1 isolate). The data set is described as above. The format is cell-based. The settings on record: read-out: EC50. As to the method:
as §1, §2

Data set [12] deals with S221 (mouse-adapted DENV2 strain). The description is as above. The data set is classed as cell-based. The settings on record: HuH-7, S221, MOI 0.3; read-out: EC50. As to the method: as §1, §2
For another data set, the system named is EDEN2. As to the kind of experiment: Non-lethal viremia mouse model. The data set is classed as in vivo, mice. As to the method: (§3) Mice were inoculated i.v. with EDEN1 (7×10^7 pfu) or EDEN2 (1×10^8 pfu). […] Average viral copy numbers on day 1 and 2 were measured using mixed serum of each group. […] A P value less than 0.05 was considered significant (*P<0.05). The number of mice per group is 6. […] Average viral copy numbers on days 4 and 5 were measured using mixed serum of each group. […] The virological log reduction (VLR) from day 3 to day 6 was also shown as the mean value and standard deviations. The number of mice per group is 6.
(§4) Since dengue fever patients in general present at a clinic when viremia is at a peak level (Low et al., 2014; Nguyen et al., 2013; Tricou et al., 2010), we next compared the 2 different dosing regimens; one started at the time of infection and another started at the time of peak viremia (on day 3 pi) similar to human situation (FIG. 4A). In this experiment, we used a non-lethal viremia mouse model, which permits the tracking of viremia kinetics for a longer period of time (FIG. 1B).

A further data set has as its system EDEN1. Kind of data set: Non-lethal viremia mouse model. The format is in vivo, mice. On the procedure:
as §3, §4

The conditions of data set [13]: mice, celgosivir 50 mg/kg BID; cited from earlier work.
The conditions of data set [14]: CELADEN study regimen, human; cited from earlier work.

With `C#C[C@@]1(O)[C@H](O)[C@@H](CO)O[C@H]1n1ccc2c(N)ncnc21` [NITD008, reference compound], the pEC50 in data set [1] is 5.93; in [2] (EDEN1, MOI 0.01, read-out: EC50), 6.04; in data set [2] (EDEN1, MOI 0.3, read-out: EC50) it was 5.55; in data set [3], 5.83; in data set [4] it was 6.17; in data set [5], 6.45. Besides, the pEC50 in [6] was 6.41; in data set [7], 6.45; in [8] (BHK-21, EDEN1, MOI 0.01), 6.22; in [8] (BHK-21, EDEN1, MOI 0.3), 6.06; in data set [9] it was 6.29; in [10] it was 7.01. The pEC50 is 6.45 in data set [11] (HuH-7, EDEN1, MOI 0.01); 6.16 in [11] (HuH-7, EDEN1, MOI 0.3); 7.13 in [12]. Also, the “viremia reduction on day 3 pi” value in the data set with EDEN2 (EDEN2, NITD008 25 mg/kg BID from day 0) was 4.9 fold; with EDEN1 (EDEN1, NITD008 25 mg/kg BID from day 0) it was 3.5 fold. In addition, the “VLR from day 3 to day 6” value in the data set with EDEN2 (EDEN2, NITD008 25 mg/kg BID started on day 3) came out at 2.24; in the data set with EDEN1 (EDEN1, NITD008 25 mg/kg BID started on day 3) it was 0.96.

Regarding `O[C@H]1[C@H](O)[C@@H](O)CN2CC[C@H](O)[C@H]12` [castanospermine], the “steady state minimum castanospermine concentration” value in data set [13] was 400 nanograms/ml. In addition, the “steady state maximum castanospermine concentration” value in data set [14] was 5100 nanograms/ml.
